According to PubChem BioAssay AID1963437 (Molecular Pharmacology Branch, DTP, NCI, 2024):
pIC50: −log10 of the molar value.

System: OVCAR-8 complex spheroid, growth inhibition
Test: Anticancer human tumor OVCAR-8 cell line growth inhibition [Asc];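 note: spheroids exposed to agents for 7 days before readout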;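 for viability, T/C: percent viability relative to DMSO vehicle wells taken as 100%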
Conditions: for pIC50: curve of first compound; for viability, T/C: stronger effect = lower value; active = viability on the fitted dose curve at most 10% of control; inactive = the rest
Summary of the method: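 Tumor cells were grown as complex spheroids with human endothelial cells (HUVEC) and human mesenchymal stem cells as stroma. Agents were tested alone and in combination, in half-log steps down from the clinical Cmax, or from 10 microM where Cmax was unknown.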

[1] = second compound 0.0316 µM, first compound 0.00316 µM
[2] = second compound 0.0316 µM, first compound 0.01 µM
[3] = second compound 0.0316 µM, first compound 0.0316 µM
[4] = second compound 0.0316 µM, first compound 0.1 µM
[5] = second compound 0.0316 µM, first compound 0.316 µM
[6] = second compound 0.0316 µM, first compound 1 µM
[7] = second compound 0.1 µM, first compound 0.00316 µM
[8] = second compound 0.1 µM, first compound 0.01 µM
[9] = second compound 0.1 µM, first compound 0.0316 µM
[10] = second compound 0.1 µM, first compound 0.1 µM
[11] = second compound 0.1 µM, first compound 0.316 µM
[12] = second compound 0.1 µM, first compound 1 µM
[13] = second compound 0.316 µM, first compound 0.00316 µM
[14] = second compound 0.316 µM, first compound 0.01 µM
[15] = second compound 0.316 µM, first compound 0.0316 µM
[16] = second compound 0.316 µM, first compound 0.1 µM
[17] = second compound 0.316 µM, first compound 0.316 µM
[18] = second compound 0.316 µM, first compound 1 µM
[19] = second compound 1 µM, first compound 0.00316 µM
[20] = second compound 1 µM, first compound 0.01 µM
[21] = second compound 1 µM, first compound 0.0316 µM
[22] = second compound 1 µM, first compound 0.1 µM
[23] = second compound 1 µM, first compound 0.316 µM
[24] = second compound 1 µM, first compound 1 µM

CCN1CCN(Cc2ccc(Nc3ncc(F)c(-c4cc(F)c5nc(C)n(C(C)C)c5c4)n3)nc2)CC1 + Cc1c(S(C)(=O)=O)c(-c2cc(F)cc(N3CCN(c4ccc(NS(=O)(=O)c5ccc(NC(CCN6CCC(C(=O)OCCCP(=O)(O)O)CC6)CSc6ccccc6)c(S(=O)(=O)C(F)(F)F)c5)cc4)CC3)c2)c(-c2ccc(Cl)cc2)n1C(C)C
< 6.00: pIC50 (second compound 0.0316 µM) | pIC50 (second compound 0.1 µM) | pIC50 (second compound 0.316 µM) | pIC50 (second compound 1 µM) | pIC50 (second compound 3.16 µM) | pIC50 (second compound 10 µM)
inactive: viability, T/C [1] 102% | viability, T/C [2] 96.1% | viability, T/C [3] 95.6% | viability, T/C [4] 98.2% | viability, T/C [5] 112% | viability, T/C [6] 128% | viability, T/C [7] 90.3% | viability, T/C [8] 87.8% | viability, T/C [9] 90.4% | viability, T/C [10] 101% | viability, T/C [11] 112% | viability, T/C [12] 118% | viability, T/C [13] 93.6% | viability, T/C [14] 97.5% | viability, T/C [15] 103% | viability, T/C [16] 107% | viability, T/C [17] 117% | viability, T/C [18] 121% | viability, T/C [19] 89.1% | viability, T/C [20] 105% | viability, T/C [21] 99.7% | viability, T/C [22] 107% | viability, T/C [23] 97.5% | viability, T/C [24] 122% | viability, T/C (second compound 3.16 µM, first compound 0.00316 µM) 108% | viability, T/C (second compound 3.16 µM, first compound 0.01 µM) 92.3% | viability, T/C (second compound 3.16 µM, first compound 0.0316 µM) 103% | viability, T/C (second compound 3.16 µM, first compound 0.1 µM) 89.7% | viability, T/C (second compound 3.16 µM, first compound 0.316 µM) 106% | viability, T/C (second compound 3.16 µM, first compound 1 µM) 95.4% | viability, T/C (second compound 10 µM, first compound 0.00316 µM) 105% | viability, T/C (second compound 10 µM, first compound 0.01 µM) 111% | viability, T/C (second compound 10 µM, first compound 0.0316 µM) 90.2% | viability, T/C (second compound 10 µM, first compound 0.1 µM) 116% | viability, T/C (second compound 10 µM, first compound 0.316 µM) 93.1% | viability, T/C (second compound 10 µM, first compound 1 µM) 109%

COc1c(OCCCN2CCOCC2)ccc2c3n(c(=NC(=O)c4cnc(N)nc4)nc12)CCN3 + CNC(C)C(=O)NC1CN(S(=O)(=O)c2cccc(S(=O)(=O)N3CCC4CCC(C(=O)NC(c5ccccc5)c5ccccc5)N4C(=O)C(NC(=O)C(C)NC)C3)c2)CCC2CCC(C(=O)NC(c3ccccc3)c3ccccc3)N2C1=O
6.14: pIC50 (second compound 0.1 µM)
6.25: pIC50 (second compound 0.316 µM)
inactive: viability, T/C (second compound 0.00316 µM, first compound 0.00316 µM) 110% | viability, T/C (second compound 0.00316 µM, first compound 0.01 µM) 94.7% | viability, T/C (second compound 0.00316 µM, first compound 0.0316 µM) 131% | viability, T/C (second compound 0.00316 µM, first compound 0.1 µM) 137% | viability, T/C (second compound 0.00316 µM, first compound 0.316 µM) 126% | viability, T/C (second compound 0.00316 µM, first compound 1 µM) 73.1% | viability, T/C (second compound 0.01 µM, first compound 0.00316 µM) 99.5% | viability, T/C (second compound 0.01 µM, first compound 0.01 µM) 105% | viability, T/C (second compound 0.01 µM, first compound 0.0316 µM) 113% | viability, T/C (second compound 0.01 µM, first compound 0.1 µM) 149% | viability, T/C (second compound 0.01 µM, first compound 0.316 µM) 129% | viability, T/C (second compound 0.01 µM, first compound 1 µM) 64.4% | viability, T/C [1] 99.6% | viability, T/C [2] 92.7% | viability, T/C [3] 107% | viability, T/C [4] 133% | viability, T/C [5] 135% | viability, T/C [6] 44.7% | viability, T/C [7] 82.5% | viability, T/C [8] 92.9% | viability, T/C [9] 101% | viability, T/C [10] 115% | viability, T/C [11] 105% | viability, T/C [12] 31.6% | viability, T/C [13] 87.5% | viability, T/C [14] 77.3% | viability, T/C [15] 98.7% | viability, T/C [16] 113% | viability, T/C [17] 84.1% | viability, T/C [18] 16% | viability, T/C [19] 92.9% | viability, T/C [20] 90.4% | viability, T/C [21] 111% | viability, T/C [22] 92.5% | viability, T/C [23] 51.3%
6.04: pIC50 (second compound 0.0316 µM)
6.49: pIC50 (second compound 1 µM)
active: viability, T/C [24] 4.42%
< 6.00: pIC50 (second compound 0.00316 µM) | pIC50 (second compound 0.01 µM)
